Laboratory results published in EP0652009A1, “Identification and use of protease inhibitors” (ELI LILLY AND COMPANY, priority 1993, dated 1995).
Non-standard residues stand in square brackets, D forms with d. Residues, ends and D or L forms follow the SMILES beside them. Sta = CC(C)C[C@H](N)[C@@H](O)CC(=O)O; N(iPr)Gly = CC(C)NCC(=O)O

What was measured:
βAP production = assay: Assay 4: βAP production inhibition (cellular assay, ELISA of conditioned media, normalised to MTT); type: cell-based, human; Chinese hamster; conditions: compound at 10 µg/mL; 293 751 SWE and CHO 751 SWE cells (table does not say which); βAP ELISA divided by MTT result, relative to drug-free control; mean and standard deviation of at least six replicate assays
From the text: The test system used to measure the βAP production inhibition activity is typically a cellular assay or an animal model. Preferably, the βAP production inhibition activity is obtained by direct measurement of βAP production in a cellular assay, as described in WO9410569, the full disclosure of which is incorporated herein by reference. This assay is exemplified in Assay 4, below.
Two cell lines (human kidney cell line 293 and Chinese hamster ovary cell line CHO) were stably transfected with the gene for APP-751 containing the double mutation Lys₆₅₁-Met₆₅₂ to Asn₆₅₁-Leu₆₅₂ (APP-751 numbering) commonly called the Swedish mutation using the method described in Citron et al., (1992) Nature 360:672-674. The transfected cell lines were designated as 293 751 SWE and CHO 751 SWE, and were plated in Corning 96 well plates at 2.5x10⁴ or 1x10⁴ cells per well respectively in Dulbecco's minimal essential media plus 10% fetal bovine serum. Following overnight incubation at 37°C in an incubator equilibrated with 10% carbon dioxide (CO₂), the media were removed and replaced with 200 µL per well of media containing an aspartyl protease inhibitor. After a two hour pretreatment period, the media were again removed and replaced with fresh media containing the aspartyl protease inhibitor and the cells were incubated for an additional two hours.
After treatment, plates were centrifuged in a Beckman GPR at 1200 rpm for five minutes at room temperature to pellet cellular debris from the conditioned media. From each well, 100µL of conditioned media were transferred into an ELISA plate precoated with antibody 266 against βAP-13-28 (Seubert et al., supra.) and stored at 4°C overnight. An ELISA assay employing labelled antibody 6C6 (against βAP-1-16) was run the next day to measure the amount of βAP produced.
Cytotoxic effects of the compounds were measured by a modification of the method of Hansen et al., (1989) J. Immun. Meth. 119:203-210. To the cells remaining in the tissue culture plate, was added 25 µL of a 3,(4,5-dimethylthiazol-2-yl)2,5-diphenyltetrazolium bromide (MTT) stock solution (5 mg/mL) to a final concentration of 1 mg/mL. Cells were incubated at 37°C for one hour, and cellular activity was stopped by the addition of an equal volume of MTT lysis buffer (20% w/v sodium dodecylsulfate in 50% DMF, pH 4.7). Complete extraction was achieved by overnight shaking at room temperature. The difference in the OD562nm and the OD650nm was measured in a Molecular Devices UVmax microplate reader as an indicator of the cellular viability.
The results of the βAP ELISA were fit to a standard curve and expressed as ng/mL βAP peptide. In order to normalize for cytotoxicity, these βAP results were divided by the MTT results and expressed as a percentage of the results from a drug-free control.
The compounds prepared above in Examples 9, 12, 13, 20-23, 23A, 24, 30, 41-43, 45, and 48 were assayed for βAP production inhibition activity in cells at 10 µg/mL using Assay 4. The results presented in Assay Table 4, below, are the mean and standard deviation of at least six replicate assays. Assay Table 4

Human liver cathepsin D = Human liver cathepsin D (Homo sapiens, UniProt P07339); assay: Assay 2: cathepsin D inhibition activity (non-cellular fluorometric assay); type: biochemical; parameters: Human liver cathepsin D (Athens Research and Technology, Athens, GA); purchased Athens Research and Technology, Athens, GA; conditions: compound at 10 µg/mL; percent inhibition of control activity; mean and standard deviation of at least four replicate assays
Sequence of Human liver cathepsin D (P07339 169-412 limits assumed): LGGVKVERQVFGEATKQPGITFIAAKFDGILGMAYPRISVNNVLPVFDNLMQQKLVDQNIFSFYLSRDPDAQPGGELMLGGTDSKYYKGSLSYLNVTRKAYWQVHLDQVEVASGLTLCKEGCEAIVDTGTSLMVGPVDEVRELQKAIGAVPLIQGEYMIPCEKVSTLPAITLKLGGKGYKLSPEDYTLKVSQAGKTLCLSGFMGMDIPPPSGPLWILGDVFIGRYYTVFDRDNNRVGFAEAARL
Sequence of Human liver cathepsin D (P07339 65-162 limits assumed): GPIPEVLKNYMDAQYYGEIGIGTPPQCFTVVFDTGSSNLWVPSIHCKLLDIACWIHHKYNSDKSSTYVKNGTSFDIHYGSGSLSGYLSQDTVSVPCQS
Protocol: A second non-cellular assay for determining in vitro aspartyl protease inhibitory activity utilizes a microtiter plate, where a suitable aspartyl protease, such as cathepsin D is added to each well together with controls. A suitable fluorometric substrate is added to each well. The resultant reaction mixture is allowed to react for a preselected time, e.g., 30 minutes. After enzyme activity is terminated, the substrate or its product may be determined fluorometrically and then the protease inhibition activity may be calculated based on the rates of substrate turnover. This assay is exemplified in Assay 2, below.
A fluorometric assay was adapted from the method disclosed by Murakami et al., (1981) Anal. Biochem. 110:232-239 for measuring renin activity. Human liver cathepsin D (Athens Research and Technology, Athens, GA) was diluted in assay buffer, 200mM NaOAc, pH 4.5, 150mM NaCl to 500 ng/mL and then 100 µL of this cathepsin D solution was added to each well of a 96 well plate with the exception of control wells which received just 100 µL of assay buffer. Compound stocks were prepared by dissolving an aspartyl protease inhibitor in DMSO for each concentration tested in the assay and then 5 µL of compound stock was added to each of the wells prepared above. Blank and enzyme control wells each received 5 µL of the DMSO vehicle.
Following a ten minute incubation at 25°C to allow enzyme/compound interaction, 5 µL of 500µM fluorometric substrate (Suc-Arg-Pro-Phe-His-Leu-Leu-Val-Try-AMC [SEQ ID NO:4], Bachem Biosciences, Philadelphia, PA) in DMSO was added per well to initiate the reaction. After incubation at 37°C for 30 minutes, cathepsin D activity was terminated by the addition of 100 µL per well of 400 mU/mL microsomal leucine aminopeptidase (EC 3.4.11.2, Sigma, St. Louis, MO) in 1M Tris-HCl, pH 8.0.
The plates were then analyzed in a fluorometer (CytoFluor 2350, Millipore, Bedford, MA) with an excitation wavelength of 360nm and an emission wavelength of 460nm, in order to check for background fluorescence due to test compounds. Following a two hour incubation at 37°C, to allow the aminopeptidase to release the fluorophore, 7-amido-4-methylcoumarin (AMC) from the products of cathepsin D cleavage, the plates were again analyzed in the fluorometer. In order to check for potential false positives, i.e., inhibitors of microsomal leucine aminopeptidase, residual aminopeptidase activity was monitored directly in each well by the addition of 20 µL/well of 2.5mM Leu-pNA (Bachem Biosciences, Philadelphia, PA) in 10% DMSO. Aminopeptidase activity was measured as an increase in the absorbance at 405nm in a UVmax microplate reader (Molecular Devices, Menlo Park, CA).
The compounds prepared in Examples 9, 12, 13, 20-23, 23A, 24, 30, 41-43, 45, and 48 were assayed at 10 µg/mL for cathepsin D inhibition activity using Assay 2. Cathepsin D activity was linear under these conditions and the results are expressed as percent inhibition of the control activity in Assay Table 2, below. All results presented are the mean and standard deviation of at least four replicate assays. Assay Table 2

Human brain cathepsin D = target: T1, Human brain cathepsin D (Homo sapiens, UniProt P07339); assay: Assay 1: cathepsin D inhibition activity (non-cellular assay, porcine renin tetradecapeptide substrate, RP-HPLC); type: biochemical; conditions: purified human brain cathepsin D, pH 4.5, 44 µM porcine renin tetradecapeptide, 37°C
T1 construct: Human brain cathepsin D was purified from frozen post-mortem cortex; from tissue; host or cells: human post-mortem brain cortex
T1 sequence (P07339 65-412): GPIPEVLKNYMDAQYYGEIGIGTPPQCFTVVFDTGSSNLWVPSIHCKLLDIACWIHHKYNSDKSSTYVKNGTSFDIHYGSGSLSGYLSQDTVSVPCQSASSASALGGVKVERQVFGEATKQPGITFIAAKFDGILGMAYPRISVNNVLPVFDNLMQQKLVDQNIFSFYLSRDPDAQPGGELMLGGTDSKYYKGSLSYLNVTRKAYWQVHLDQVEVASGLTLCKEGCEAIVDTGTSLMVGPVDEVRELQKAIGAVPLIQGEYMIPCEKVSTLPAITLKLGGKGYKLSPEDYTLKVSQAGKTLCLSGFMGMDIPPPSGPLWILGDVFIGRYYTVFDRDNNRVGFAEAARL
Protocol: An example of a non-cellular assay that may be used to determine in vitro aspartyl protease inhibitory activity reacts partially purified human brain cathepsin D with a substrate, e.g., porcine renin tetradecapeptide. The resultant reaction mixture is divided into portions and each portion is incubated for a different period of time. After the reaction is stopped, the turnover of substrate in each portion is determined using reverse-phase HPLC. Protease inhibition activity may be calculated based on the rates of substrate turnover. This assay is exemplified in Assay 1, below. Human brain cathepsin D was purified from frozen post-mortem cortex substantially in accordance with the method of Nixon and Morotta, (1984) J. Neurochem. 43:507-516. The cortex material was prepared and applied to a DEAE-Sepharose® column. The flow through fraction was dialyzed against 50mM Tris-HCl, pH 7.5, and applied to concanavalin A Sepharose® and eluted with 50mM Tris, pH 7.5, 0.5M methyl α-D-mannopyranoside. The eluted cathepsin D activity was dialyzed against 25mM Tris, pH 7.5, and stored at -40°C (Con A pool) until use. For each assay, 50 μL of the Con A pool was diluted to 270 μL in 200mM sodium citrate, pH 4.5, 150mM sodium chloride (NaCl), and incubated for 10 minutes at 4°C with 15 μL of compound stock diluted in dimethylsulfoxide (DMSO). The substrate, porcine renin tetradecapeptide ([…] [SEQ ID NO:3], Bachem Bioscience, Inc., Philadelphia, PA), was added to each reaction mixture to yield a final concentration of 44 μM in a total volume of 300 μL. The samples were incubated at 37°C for 0, 10, 20, or 30 minutes, and then boiled for 5 minutes to stop the reaction. The samples were centrifuged in a microcentrifuge for 10 minutes at 14,000 rpm at 4°C. After centrifugation, 200 μL of each reaction was injected onto […] column (Vydac, Hesperia, CA) with a Perkin Elmer ISS 100 autosampler and eluted with a gradient eluent of 0-50% CH3CN in 0.1% CF3CO2H at 2 mL/min. Peptide product peaks were monitored at 220nm with a Perkin Elmer LC 95 detector and integrated with Rainin Dynamax software in order to quantitate activity.

Row | Molecule | IC50 (Human brain cathepsin D) [nM] | inhibition at 10 µg/mL (βAP production) [%] | inhibition at 10 µg/mL (Human liver cathepsin D) [%] | further results
1 | [1S-(1R*,4R*,5S*)]-N-(1-(Propyl)-2-oxo-3-aza-4-phenylmethyl-5-hydroxy-6-(2-(1-t-butylamino-1-oxomethyl)phenyl)hexyl)-quinolin-2-yl carboxamide [Example 21] |  |  |  | βAP Production Inhibition (βAP production): 78.3 ± 1.5%; Cathepsin D Inhibition (Human liver cathepsin D): 78.3 ± 3.8%
2 | CC[C@H](C)[C@H](NC(=O)C[C@H](O)[C@H](CC(C)C)NC(=O)CNC(C)C)C(=O)N[C@@H](C)C(=O)N[C@H](C(=O)O)[C@@H](C)O [Example 44, (CH3)2CH-Gly-Sta-Ile-Ala-Thr-OH] (H-[N(iPr)Gly][Sta]IAT-OH) | > 100 |  |  | 
3 | CC(C)[C@H](NC(=O)OC(C)(C)C)C(=O)N[C@@H](Cc1ccccc1)[C@H](O)Cc1ccccc1C(=O)NC(C)(C)C [Example 23A, [2R-(2R*,3S*,6S*)]-N-t-Butyl-2-[2-hydroxy-3-phenylmethyl-4-aza-5-oxo-6-N(t-butoxycarbonyl)amino-7-methyl]octyl benzamide] |  | 32.5 ± 3.3 | 32.5 ± 4.7 | 
4 | CC(C)[C@H](NC(=O)c1cnc2ccccc2n1)C(=O)N[C@@H](Cc1ccccc1)[C@H](O)Cc1ccccc1C(=O)NC(C)(C)C [Example 12, [1S-(1R*,4R*,5S*)]-N-(1-Isopropyl-2-oxo-3-aza-4-phenylmethyl-5-hydroxy-6-(2-(1-t-butylamino-1-oxomethyl)phenyl)hexyl)-2-quinoxalinyl acetamide] |  | 12.4 ± 6 | 12.4 ± 3.7 | 
5 | CC(C)C[C@H](NC(=O)c1ccc2ccccc2n1)C(=O)N[C@@H](Cc1ccccc1)[C@H](O)Cc1ccccc1C(=O)NC(C)(C)C [Example 20, [1S-(1R*,4R*,5S*)]-N-(1-(2-Methylpropyl)-2-oxo-3-aza-4-phenylmethyl-5-hydroxy-6-(2-(1-t-butylamino-1-oxomethyl)phenyl)hexyl)-quinolin-2-yl carboxamide] |  | 94.8 ± 3.1 | 94.8 ± 0.6 | 
6 | CC[C@H](C)[C@H](NC(=O)[C@@H](NC(=O)[C@@H](NC(=O)CNC(C)C)C(C)C)C(C)C)C(=O)N[C@@H](CC(C)C)[C@@H](O)CC(=O)N[C@H](C(=O)O)[C@@H](C)O [Example 47, (CH3)2CH-Gly-Val-Val-Ile-Sta-Thr-OH] (H-[N(iPr)Gly]VVI[Sta]T-OH) | > 250 |  |  | 
7 | CC(C)C[C@H](NC(=O)[C@@H](NC(=O)CNC(C)C)C(C)C)[C@@H](O)CC(=O)N[C@@H](C)C(=O)N[C@H](C(=O)O)[C@@H](C)O [Example 46, (CH3)2CH-Gly-Val-Sta-Ala-Thr-OH] (H-[N(iPr)Gly]V[Sta]AT-OH) | > 250 |  |  | 
8 | CC(C)[C@H](NC(=O)c1ccc2ccccc2c1)C(=O)N[C@@H](Cc1ccccc1)[C@H](O)Cc1ccccc1C(=O)NC(C)(C)C [Example 13] |  | 91.4 ± 3.9 | 91.4 ± 0.4 | 
